Results published in patent publication US6362369B1, “Phthalic acid diamide derivatives fluorine-containing aniline compounds as starting material, agricultural and horticultural insecticides, and a method for application of the insecticides” (Nihon Nohyaku Co., Ltd., priority 1997, dated 2002).

What was measured:
Assay type in all cases: in vivo
[1] = test system: diamondback moth (Plutella xylostella); assay: Insecticidal effect on diamondback moth (Test Example 1); conditions: for Insecticidal effect (Test Example 1), judged from mortality / Insecticidal effect, Test Example 1: diamondback moth; for Insecticidal effect (Test Example 1), judged from mortality: judged by the criterion of Test Example 1; for Insecticidal effect on diamondback moth (Test Example 1), judged grade: mortality judged according to the criterion shown in Test Example 1
In short: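 Eggs laid by adult moths on Chinese cabbage seedlings, which were immersed in test solution, air-dried and kept at 25 °C. Hatched insects counted 6 days after immersion and mortality calculated, with effect graded by criterion; triplicate groups of 10 insects.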

[2] = test system: common cutworm (Spodoptera Litura); assay: Insecticidal effect on common cutworm (Test Example 2); conditions: 500 ppm, 25° C.; for Insecticidal effect (Test Example 2), judged from mortality / Insecticidal effect on common cutworm (Test Example 2), judged grade: cabbage leaf dip; for Insecticidal effect (Test Example 2), judged from mortality: 8 days after inoculation; for Insecticidal effect, Test Example 2: cabbage leaf immersed; for Insecticidal effect, Test Example 2 / Insecticidal effect on common cutworm (Test Example 2), judged grade: eight days after inoculation; for Insecticidal effect on common cutworm (Test Example 2), judged grade: second-instar larvae
In short: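 Mortality is the read-out: larvae are counted as dead or alive on day 8 and the percentage is graded by an effect criterion. Second-instar larvae are kept with the air-dried treated material in a sealed dish at 25° C, in triplicate groups of ten.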

[3] = test system: rice leafroller (Cnaphalocrocis medinalis); assay: Insecticidal effect on rice leafroller (Test Example 3); conditions: 500 ppm, 25° C., humidity 70%; for Insecticidal effect (Test Example 3), judged from mortality / Insecticidal effect on rice leafroller (Test Example 3), judged grade: rice lamina dip; for Insecticidal effect (Test Example 3), judged from mortality: 4 days after inoculation; for Insecticidal effect, Test Example 3: rice lamina immersed; for Insecticidal effect, Test Example 3 / Insecticidal effect on rice leafroller (Test Example 3), judged grade: four days after inoculation; for Insecticidal effect on rice leafroller (Test Example 3), judged grade: third-instar larvae
In short: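 Groups of 10 third-instar larvae, in triplicate, are placed on air-dried lamina resting on wet filter paper. Incubation runs four days at 25° C with 70% humidity before survivors and dead are tallied.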

[4] = second-instar larvae of common cutworm
[5] = third-instar larvae of rice leafroller
[6] = judged by the mortality criterion of Test Example 1
[7] = mortality judged by criterion of Test Example 1
[8] = common cutworm second-instar larvae
[9] = rice leafroller third-instar larvae

| SMILES | Insecticidal effect, Test Example 1 [1, 6] | Insecticidal effect, Test Example 2 [2, 4] | Insecticidal effect, Test Example 3 [3, 5] | other results |
| --- | --- | --- | --- | --- |
| Cc1cc(-c2ccc(C(F)(F)F)cc2)ccc1NC(=O)c1cccc(I)c1C(=O)NC(C)C [compound 1522] |  |  |  | Insecticidal effect (Test Example 1), judged from mortality [1]: A (100); Insecticidal effect (Test Example 2), judged from mortality [2, 4]: A (100); Insecticidal effect (Test Example 3), judged from mortality [3, 5]: A (100) |
| Cc1cc(OC(F)(F)C(F)(Br)C(F)(F)F)ccc1NC(=O)c1cccc(I)c1C(=O)NC(C)C (stereo not drawn) [compound 394] | A (100) | A (100) | A (100) |  |
| CC(C)NC(=O)c1c(C(=O)Nc2ccc(SC(F)(F)F)cc2)cccc1[N+](=O)[O-] [compound 996] |  |  |  | Insecticidal effect, Test Example 1 [1, 7]: A (100); Insecticidal effect, Test Example 2 [2, 8]: A (100); Insecticidal effect, Test Example 3 [3, 9]: A (100) |
| CC(C)NC(=O)c1c(Br)cccc1C(=O)Nc1ccc(OC(F)(F)F)cc1 [Compound No. 262, 3-bromo-N^1-(4-trifluoromethoxyphenyl)-N^2-isopropylphthalic acid diamide] | A (100) | A (100) | D (79-50) |  |
| CCC(C)(C)NC(=O)c1c(F)cccc1C(=O)Nc1ccc(C(F)(F)C(F)(F)F)cc1C [compound 1152] |  |  |  | Insecticidal effect, Test Example 1 [1, 7]: A (100); Insecticidal effect, Test Example 2 [2, 8]: A (100); Insecticidal effect, Test Example 3 [3, 9]: A (100) |
| CC(C)NC(=O)c1cccc(I)c1C(=O)Nc1ccc(OC(F)(F)C(F)OC(F)(F)C(F)(F)C(F)(F)F)cc1 (stereo not drawn) [compound 419] | A (100) | A (100) | A (100) |  |
| CC(C)NC(=O)c1c(F)cccc1C(=O)Nc1ccc(OC(F)(F)F)cc1Br [compound 509] |  |  |  | Insecticidal effect on diamondback moth (Test Example 1), judged grade [1]: A (100); Insecticidal effect on common cutworm (Test Example 2), judged grade [2]: A (100); Insecticidal effect on rice leafroller (Test Example 3), judged grade [3]: A (100) |
| Cc1cc(OC(F)F)ccc1NC(=O)c1ccc(Br)c(Br)c1C(=O)NC(C)C [compound 338] | A (100) | B (99-90) | A (100) |  |
| CCN(CC)C(=O)c1cccc([N+](=O)[O-])c1C(=O)Nc1ccc(C(F)(F)C(F)(F)F)cc1C [compound 1551] |  |  |  | Insecticidal effect (Test Example 1), judged from mortality [1]: A (100); Insecticidal effect (Test Example 2), judged from mortality [2, 4]: D (79-50); Insecticidal effect (Test Example 3), judged from mortality [3, 5]: A (100) |
| Cc1cc(OC(F)(F)C(F)C(F)(F)F)ccc1NC(=O)c1c(Cl)cccc1C(=O)NC(C)C (stereo not drawn) [compound 242] | A (100) | B (99-90) | A (100) |  |
| Cc1cc(Br)ccc1NC(=O)c1cccc(Cl)c1C(=O)NC(C)C [compound 121] | A (100) | A (100) | A (100) |  |
| COc1ccc(NC(=O)c2cccc(Cl)c2C(=O)NC(C)C)c(C)c1C [compound 124] | A (100) | A (100) | A (100) |  |
| COc1cccc(C(=O)NC(C)C)c1C(=O)Nc1cc(Cl)ccc1C [compound 770] |  |  |  | Insecticidal effect on diamondback moth (Test Example 1), judged grade [1]: A (100); Insecticidal effect on common cutworm (Test Example 2), judged grade [2]: A (100); Insecticidal effect on rice leafroller (Test Example 3), judged grade [3]: A (100) |
| CCC(COC)NC(=O)c1c(I)cccc1C(=O)Nc1ccc(C(F)(F)C(F)(F)F)cc1C (stereo not drawn) [compound 1013] |  |  |  | Insecticidal effect, Test Example 1 [1, 7]: A (100); Insecticidal effect, Test Example 2 [2, 8]: A (100); Insecticidal effect, Test Example 3 [3, 9]: A (100) |
| Cc1cc(C(F)(F)F)ccc1NC(=O)c1cccc(Br)c1C(=O)NC(C)C [compound 277] | A (100) | A (100) | A (100) |  |
| CCN(CC)C(=O)c1c(I)cccc1C(=O)Nc1ccc(OC(F)(F)F)cc1C [compound 1533] |  |  |  | Insecticidal effect (Test Example 1), judged from mortality [1]: A (100); Insecticidal effect (Test Example 2), judged from mortality [2, 4]: A (100); Insecticidal effect (Test Example 3), judged from mortality [3, 5]: A (100) |
| CCN(CC)C(=O)c1c(Cl)cccc1C(=O)Nc1ccc(C(F)(F)C(F)(F)F)cc1C [compound 1535] |  |  |  | Insecticidal effect (Test Example 1), judged from mortality [1]: A (100); Insecticidal effect (Test Example 2), judged from mortality [2, 4]: A (100); Insecticidal effect (Test Example 3), judged from mortality [3, 5]: A (100) |
| Cc1cc(OC(F)(F)C(F)(Cl)Cl)ccc1NC(=O)c1cccc(Cl)c1C(=O)NC(C)C [compound 145] | A (100) | A (100) | A (100) |  |
